Assay results from patent publication US4618618A, “Compounds and compositions” (priority 1981, dated 1986).
Counter-ions that a name gives are not always drawn. Like-named read-outs stand apart in the source and are kept apart here.

Assays:
in vivo = conditions: bovine, 10 mg/kg
[1] = cited from earlier work
[2] = bovine, in vivo
[3] = system: Ostertagia, Trichostrongylus and Haemonchus; assay: Anthelmintic efficacy in infected sheep (parasite counts at slaughter); type: in vivo
Procedure: To ensure that the compounds were tested in heavily infected animals sheep harbouring a heavy naturally acquired parasitic infection were chosen and further infected with larvae of the species Ostertagia, Trichostrongylus and Haemonchus. The infections were allowed to reach maturity. […] A second group of sheep, the controls, were injected with an aqueous solution of levamisole dihydrogen phosphate at a dose rate equivalent to 6 mg of levamisole base per kilogram of animal body weight.
Half of the sheep in each group were slaughtered 7 days after treatment and the parasites in the abomasum, small intestine, large intestine and lungs were counted.

[4] = Level of nitroxynil in the blood of cattle after injection (high pressure liquid chromatography)
[5] = Level of levamisole in the blood of cattle after injection (high pressure liquid chromatography)
helminth = conditions: ruminants sheep and cattle; cited from earlier work
liver fluke = conditions: mature and immature liver fluke; cited from earlier work
[6] = cattle, injected solution in polyethylene glycol 200 (Example 2 (a)), 17 mg of the salt/kg, each of four animals
[7] = compared with levamisole dihydrogen phosphate

N#Cc1cc(I)c(O)c([N+](=O)[O-])c1 [nitroxynil N-ethyl-D-glucamine salt]
Tmax (in vivo): 4 h

c1ccc(C2CN3CCSC3=N2)cc1 (racemic) [tetramisole, D,L-2,3,5,6-Tetrahydro-6-phenylimidazo[2,1-b]thiazole]
base catalysed hydrolysis [1]: subject to base catalysed hydrolysis

O=P(O)(O)O.c1ccc([C@H]2CN3CCSC3=N2)cc1 [levamisole dihydrogen phosphate, reference compound]
time to maximum level of levamisole in the blood ([2]; 6 mg/kg): ≤ 1 h
course of the level of levamisole in the blood (in words) ([2]; sc): quickly rises to a maximum and quickly declines
eradication of the helminth infection ([3]; sheep slaughtered 7 days after treatment, injected aqueous solution, 6 mg levamisole base/kg): either completely or essentially completely eradicated
eradication of the helminth infection ([3]; sheep slaughtered 28 days after treatment, injected aqueous solution, 6 mg levamisole base/kg): either completely or essentially completely eradicated

N#Cc1cc(I)c(O)c([N+](=O)[O-])c1.c1ccc([C@H]2CN3CCSC3=N2)cc1 [Example 1, L-2,3,5,6-tetrahydro-6-phenylimidazo[2,1-b]thiazolium 4-cyano-2-iodo-6-nitrophenoxide]
time to maximum level of nitroxynil in the blood [4, 6]: approximately 24 hours
rise of blood level of nitroxynil to a maximum (in words) ([4]; compared with nitroxynil N-ethyl-D-glucamine salt): much more slowly
nitroxynil levels obtained in the blood (in words) ([4]; parenteral administration): therapeutic levels
eradication of the helminth infection ([3]; sheep slaughtered 7 days after treatment, injected 14.5 mg of the salt/kg in polyethylene glycol 200): either completely or essentially completely eradicated
eradication of the helminth infection ([3]; sheep slaughtered 28 days after treatment, injected 14.5 mg of the salt/kg in polyethylene glycol 200): either completely or essentially completely eradicated
level of levamisole in the blood 4 hours after the injection, % of the maximum level ([5]; cattle, injected solution in polyethylene glycol 200 (Example 2 (a)), 17 mg of the salt/kg, 4 hours): at least 50%
time to maximum level of levamisole in the blood [5, 6]: approximately 2 hours
duration of the level of levamisole in the blood (in words) [5, 7]: maintained for a longer period of time
rise of blood level of levamisole to a maximum (in words) [5, 7]: much more slowly
rise of blood level of levamisole to a maximum (in words) ([5]; compared with levamisole dihydrogen phosphate, listed as nitroxynil salt of levamisole): more slowly
levamisole levels obtained in the blood (in words) ([5]; parenteral administration): therapeutic levels

c1ccc([C@H]2CN3CCSC3=N2)cc1 [levamisole, L-2,3,5,6-tetrahydro-6-phenylimidazo[2,1-b]thiazole]
base catalysed hydrolysis [1]: subject to base catalysed hydrolysis
activity as an anthelmintic agent relative to tetramisole (helminth): approximately twice as active as tetramisole

N#Cc1cc(I)c(O)c([N+](=O)[O-])c1 [nitroxynil, 4-cyano-2-iodo-6-nitrophenol]
activity against liver fluke (liver fluke): effective against both mature and immature liver fluke
